Test results: paper PMC8158513, “Bio-Distribution and Pharmacokinetics of Topically Administered γ-Cyclodextrin Based Eye Drops in Rabbits” (Pharmaceuticals, 2021)

How the values were obtained:
in vivo [1] = details: for concentration at 6 h: Plasma concentration at 6 h
Procedure: (§1) A total number of 59 rabbits were included in this part of the study. All rabbits were consecutively assigned to one of the two study groups. […] Group 2 animals were dosed with 0.15% candesartan eye drops, while 23 rabbits received a single dose and 5 rabbits received multiple doses of the eye drops. Single dose rabbits of both groups were additionally randomized to one of five euthanasia time points: 0.5 h ± 5 min, 1.5 h ± 5 min, 3 h ± 10 min, 6 h ± 15 min or 12 h ± 30 min after instillation. In all animals, 35 μL of the study drug were instilled in the conjunctival sac of the right eye with a calibrated pipette using single-use dispensers. Single dose animals were instilled only once while multiple dose animals were instilled twice daily for a total of 5 days. In all animals only the right eye was treated. To assess drug concentrations, eyes were enucleated at the end of the study period. Before enucleation, rabbits were euthanized in deep anesthesia (ketamine 60 mg/kg, xylazine 16 mg/kg, s.c.) by an intravenous over-dose of pentobarbitone sodium (300 mg/kg i.v.) and enucleation was performed immediately after euthanasia. Single dose animals were enucleated at one of the five specified time-points. Multiple dose animals were euthanized 1 h ± 30 min after the last drug administration. From each animal both eyes were enucleated and stored at −80 °C. For separation of the different ocular tissues, the eyeball was removed from −80 °C storage and corneal tissue, aqueous humor, vitreous humor and retinal/choroidal tissue were dissected. The tissues were collected separately in individual tubes, which were weighed and then stored at −80 °C.
A venous blood sample of 2 mL was collected from the saphenous vein before the (first) drug administration and prior to euthanasia to determine systemic drug exposure at baseline and after drug administration. The blood was centrifuged for 10 min at a temperature of 10 °C and a speed of 3000 rpm. The resulting supernatant was separated and stored in a tube at −80 °C until further processing.
(§2) Both, the eye-tissue and plasma samples were shipped to Nucro-Technics (Nucro-Technics, 2000 Ellesmere Road, Unit #16, Scarborough, ON, Canada) for quantitative analysis. For this purpose, a new liquid chromatography/tandem mass spectrometry method for simultaneous quantification of candesartan and irbesartan in rabbit eye tissues including cornea, aqueous humor, vitreous body and retina was developed. The exact method and validation are described in detail elsewhere.
(§3) This study was designed to assess pharmacokinetics and local tolerability, no formal sample size calculation has been performed. Descriptive statistics was used for all quantitative data to describe drug concentrations after the single and multiple dosing in the different tissues. […] For pharmacokinetic calculations Phoenix WinNonlin 8.1 (Certara, Princeton, NJ, USA) was used, and the statistical analysis was done using CSS Statistica 6.0 (Tulsa, OK, USA).
(§4) To facilitate calculation of the PK parameters, a plausibility check was performed and values below the lower limit of quantification (BLOQ; plasma: <0.05 ng/mL; tissue: <5 ng/g (irbesartan), <2 ng/g (candesartan)) were set to 0. […] All baseline plasma sample values were set to zero.

[2] = target: angiotensin II receptor (AT1 subtype); details: cited from earlier work
[3] = Pre-formulation studies (γCD complexation, physicochemical parameters)
Procedure: Pre-formulation studies with different candesartan (0.1–0.2%) and irbesartan (1.0–2.0%) concentrations were performed to find the optimal drug concentration for the animal experiments.

in vivo [4] = details: for Cmax / Tmax: topical or ocular
Procedure: as §1, §2, §3, §4

[5] = Multiple-dose ocular bio-distribution (twice daily for 5 days, tissues 1 h after last dose); details: New Zealand White, rabbit, topical, 35 µL
Procedure: as §1, with “Single dose animals were enucleated at one of the five specified time-points. Multiple dose animals were euthanized 1 h ± 30 min after the last drug administration. From each animal both eyes were enucleated and stored at −80 °C. For separation of the different ocular tissues, the eyeball was removed from −80 °C storage and corneal tissue, aqueous humor, vitreous humor and retinal/choroidal tissue were dissected. The tissues were collected separately in individual tubes, which were weighed and then stored at −80 °C.” left out
Both, the eye-tissue and plasma samples were shipped to Nucro-Technics (Nucro-Technics, 2000 Ellesmere Road, Unit #16, Scarborough, ON, Canada) for quantitative analysis. For this purpose, a new liquid chromatography/tandem mass spectrometry method for simultaneous quantification of candesartan and irbesartan in rabbit eye tissues including cornea, aqueous humor, vitreous body and retina was developed. […]
This study was designed to assess pharmacokinetics and local tolerability, no formal sample size calculation has been performed. Descriptive statistics was used for all quantitative data to describe drug concentrations after the single and multiple dosing in the different tissues. […]
To facilitate calculation of the PK parameters, a plausibility check was performed and values below the lower limit of quantification (BLOQ; plasma: <0.05 ng/mL; tissue: <5 ng/g (irbesartan), <2 ng/g (candesartan)) were set to 0. […]

[6] = New Zealand White, rabbit, in vivo, topical or ocular
[7] = New Zealand White, rabbit, in vivo
[8] = New Zealand White, rabbit, plasma, topical or ocular, 35 µL

Structure (SMILES): CCCCC1=NC2(CCCC2)C(=O)N1Cc1ccc(-c2ccccc2-c2nnn[nH]2)cc1 [irbesartan]
- concentration at 6 h (in vivo [1]; New Zealand White, rabbit, in vivo, mean of the other concentrations (outlier excluded)): 1.16 ng/mL
- concentration at 6 h (in vivo [1]; New Zealand White, rabbit, in vivo, single value defined as outlier): 65.2 ng/mL
- Cmax (in vivo [1]; [6]): 5.64 ± 4.08 ng/mL
- Tmax (in vivo [1]; [6]): 30 min
- half-life (in vivo [1]; [6]): 1060 min
- Plasma AUC (in vivo [1]; rabbit, in vivo, topical or ocular): 17.64 (ng/mL)*h
- IC50 [2]: 1.3 nM
- Affinity for the γCD cavity ([3]; among telmisartan, olmesartan, irbesartan and candesartan): highest affinity
- Retinal tissue AUC (in vivo [4]; [7]): 941 ng·h/g
- Retinal tissue AUC relative to the corresponding candesartan AUC (in vivo [4]; [7]): around 4.5 times
- Time of maximum retinal drug concentration after single administration (in vivo [4]; [7]): 30 min
- concentration at 0.5 h (in vivo [4]; [7]): 14 ± 16 ng/g
- half-life (in vivo [4]; [7]): 199 min
- Cmax (in vivo [4]; New Zealand White, rabbit, in vivo, Cmax CE, aqueous humor (AH)): < 5 ng/g
- Cmax (in vivo [4]; New Zealand White, rabbit, in vivo, Cmax CE, corneal tissue (CT)): 49 ± 85 ng/g
- Cmax (in vivo [4]; New Zealand White, rabbit, in vivo, Cmax CE, retinal tissue (RT)): 23 ± 34 ng/g
- Cmax (in vivo [4]; New Zealand White, rabbit, in vivo, Cmax CE, vitreous humor (VH)): < 5 ng/g
- Cmax (in vivo [4]; New Zealand White, rabbit, in vivo, Cmax SE, aqueous humor (AH)): 121 ± 69 ng/g
- Cmax (in vivo [4]; New Zealand White, rabbit, in vivo, Cmax SE, corneal tissue (CT)): 3660 ± 988 ng/g
- Cmax (in vivo [4]; New Zealand White, rabbit, in vivo, Cmax SE, retinal(choroidal) tissue (RT)): 251 ± 142 ng/g
- Cmax (in vivo [4]; New Zealand White, rabbit, in vivo, Cmax SE, vitreous humor (VH)): 14 ± 16 ng/g
- Tmax (in vivo [4]; New Zealand White, rabbit, in vivo, Tmax CE, aqueous humor (AH)): 30 min
- Tmax (in vivo [4]; New Zealand White, rabbit, in vivo, Tmax CE, corneal tissue (CT)): 90 min
- Tmax (in vivo [4]; New Zealand White, rabbit, in vivo, Tmax CE, retinal tissue (RT)): 30 min
- Tmax (in vivo [4]; New Zealand White, rabbit, in vivo, Tmax CE, vitreous humor (VH)): 30 min
- Tmax (in vivo [4]; New Zealand White, rabbit, in vivo, Tmax SE, aqueous humor (AH)): 180 min
- Tmax (in vivo [4]; New Zealand White, rabbit, in vivo, Tmax SE, corneal tissue (CT)): 90 min
- Tmax (in vivo [4]; New Zealand White, rabbit, in vivo, Tmax SE, retinal tissue (RT)): ≤ 30 min
- Tmax (in vivo [4]; New Zealand White, rabbit, in vivo, Tmax SE, vitreous humor (VH)): 30 min
- Cmax CE, vitreous humor (VH) (in vivo [4]; rabbit, in vivo): below the respective lower quantification limit

Structure (SMILES): CCOc1nc2cccc(C(=O)O)c2n1Cc1ccc(-c2ccccc2-c2nnn[nH]2)cc1 [candesartan]
- Cmax (in vivo [1]; [8]): 4.32 ± 1.04 ng/mL
- Tmax (in vivo [1]; [8]): 30 min
- half-life (in vivo [1]; [8]): 584 min
- concentration at 1 h after last dose (in vivo [1]; New Zealand White, rabbit, plasma, topical, 35 µL, Mean plasma levels (Cmean) after the last dose, multiple doses twice daily for 5 days): 4.78 ± 1.48 ng/mL
- Plasma AUC (in vivo [1]; single topical administration, AUC 0 h-12 h): 8.75 (ng/mL)*h
- concentration at 1 h after last dose ([5]; retinal tissue, Retinal tissue Cmean in molar units, multiple dose, assuming molar weight 428.54 g/mol irbesartan, 440.45 g/mol candesartan): 82 nM
- concentration at 1 h after last dose ([5]; retinal/choroidal tissue, treated study eye, Cmean retinal tissue (RT), SE, multiple doses twice daily 5 days, 1 h ± 30 min after last dose, study eye, mean ± SD): 36 ± 10 ng/g
- concentration at 1 h after last dose ([5]; vitreous humor, treated study eye, Cmean vitreous humor (VH), SE, multiple doses, 1 h after last dose, study eye): < 2 ng/g
- IC50 [2]: 0.4 nM
- Complexing efficiency of the γCD complex ([3]; compared with irbesartan): lower
- Cmax (in vivo [4]; New Zealand White, rabbit, aqueous humor, treated study eye, 35 µL, Cmax SE, aqueous humor (AH), single dose, study eye, mean ± SD, also published separately [20]): 30 ± 14 ng/g
- Tmax (in vivo [4]; New Zealand White, rabbit, aqueous humor, treated study eye, 35 µL, Tmax SE, aqueous humor (AH), single dose, study eye, also published separately [20]): 180 min
- Cmax (in vivo [4]; New Zealand White, rabbit, aqueous humor, untreated control eye, 35 µL, Cmax CE, aqueous humor (AH), single dose, control eye, also published separately [20]): < 2 ng/g
- Cmax (in vivo [4]; New Zealand White, rabbit, corneal tissue, treated study eye, 35 µL, Cmax SE, corneal tissue (CT), single dose, study eye, mean ± SD, also published separately [20]): 3500 ± 801 ng/g
- Tmax (in vivo [4]; New Zealand White, rabbit, corneal tissue, treated study eye, 35 µL, Tmax SE, corneal tissue (CT), single dose, study eye, also published separately [20]): 90 min
- Cmax (in vivo [4]; New Zealand White, rabbit, corneal tissue, untreated control eye, 35 µL, Cmax CE, corneal tissue (CT), single dose, control eye, mean ± SD, also published separately [20]): 2 ± 4 ng/g
- Tmax (in vivo [4]; New Zealand White, rabbit, corneal tissue, untreated control eye, 35 µL, Tmax CE, corneal tissue (CT), single dose, control eye, also published separately [20]): 30 min
- Cmax (in vivo [4]; New Zealand White, rabbit, retinal tissue, 35 µL, Retinal tissue single dose Cmax in molar units, single dose, assuming molar weight 428.54 g/mol irbesartan, 440.45 g/mol candesartan): 144 nM
- Cmax (in vivo [4]; New Zealand White, rabbit, retinal/choroidal tissue, treated study eye, 35 µL, Cmax SE, retinal(choroidal) tissue (RT), single dose 35 μL topical, mean ± SD): 63 ± 39 ng/g
- Tmax (in vivo [4]; New Zealand White, rabbit, retinal/choroidal tissue, treated study eye, 35 µL, Tmax SE, retinal tissue (RT), single dose, study eye): ≤ 30 min
- half-life (in vivo [4]; New Zealand White, rabbit, retinal/choroidal tissue, treated study eye, topical, 35 µL): 323 min
- Cmax (in vivo [4]; New Zealand White, rabbit, retinal/choroidal tissue, untreated control eye, 35 µL, Cmax CE, retinal tissue (RT), single dose, mean ± SD): < 2 ng/g
- Tmax (in vivo [4]; New Zealand White, rabbit, retinal/choroidal tissue, untreated control eye, 35 µL, Tmax CE, retinal tissue (RT), single dose, control eye): 30 min
- Cmax (in vivo [4]; New Zealand White, rabbit, vitreous humor, treated study eye, 35 µL, Cmax SE, vitreous humor (VH), single dose, study eye, mean ± SD): < 2 ng/g
- Tmax (in vivo [4]; New Zealand White, rabbit, vitreous humor, treated study eye, 35 µL, Tmax SE, vitreous humor (VH), single dose, study eye): 30 min
- Cmax (in vivo [4]; New Zealand White, rabbit, vitreous humor, untreated control eye, 35 µL, Cmax CE, vitreous humor (VH), single dose, control eye): < 2 ng/g
- Cmax CE, vitreous humor (VH) (in vivo [4]; single dose, control eye): below the respective lower quantification limit
- Time of maximum retinal drug concentration after single administration (in vivo [4]; single dose, retina): 30 min
- Retinal tissue AUC (in vivo [4]; single dose, study eye, AUC 0 h-12 h): 210 ng·h/g
- Cmax SE, vitreous humor (VH) (in vivo [4]; single dose, study eye, mean ± SD): <2 ng/g
